Patent publication US5075289A, “9-R-azacyclic erythromycin antibiotics” (priority 1988, dated 1991)
In brackets after ≈: the same amount, converted by molar mass. Where two headings read alike, the source gives them in different places.

Assays:
Format in all cases: cell-based
Staphylococcus aureus 45 = assay: In vitro antibacterial activity, agar dilution MIC; conditions: S. aureus 45, Brain Heart Infusion agar, 20-24 hours, read-out: MIC
Procedure, shortened: (§1)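 Test compound serially diluted in Brain Heart Infusion agar across twelve plates; inocula of 1:100 dilutions (1:10 for slow growers such as Streptococcus) applied by replicator. Plates incubated 20-24 h at 35°-37° C. MIC taken as lowest concentration giving no growth, slight haze or sparse isolated colonies versus drug-free control.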

[1] = tested on: Enterococcus faecium ATCC 8043; assay: In vitro antibacterial activity, agar dilution MIC; conditions: ATCC8043
Procedure, shortened: as §1

[2] = tested on: Staphylococcus aureus NCTC 10649; assay: In vitro antibacterial activity, agar dilution MIC; conditions: NCTC10649, S. aureus NCTC 10649, Brain Heart Infusion agar, 20-24 hours, read-out: MIC
Procedure, shortened: as §1

[3] = tested on: Streptococcus pyogenes 2548 INDUC; assay: In vitro antibacterial activity, agar dilution MIC
Procedure, shortened: as §1

[4] = tested on: Haemophilus influenzae 588A; assay: In vitro antibacterial activity, agar dilution MIC; conditions: H. influenzae 588A
Procedure, shortened: as §1

Escherichia coli SS = assay: In vitro antibacterial activity, agar dilution MIC; conditions: read-out: MIC
Procedure, shortened: as §1

[5] = tested on: Staphylococcus aureus CMX 553; assay: In vitro antibacterial activity, agar dilution MIC; conditions: CMX553, S. aureus CMX 553, Brain Heart Infusion agar, 20-24 hours, read-out: MIC
Procedure, shortened: as §1

[6] = tested on: Micrococcus luteus ATCC 4698; assay: In vitro antibacterial activity, agar dilution MIC; conditions: ATCC4698, read-out: MIC
Procedure, shortened: as §1

[7] = tested on: Haemophilus influenzae 566A; assay: In vitro antibacterial activity, agar dilution MIC; conditions: H. influenzae 566A
Procedure, shortened: as §1

[8] = tested on: Haemophilus influenzae SPK AMP R; assay: In vitro antibacterial activity, agar dilution MIC; conditions: H. influenzae SPK AMP R
Procedure, shortened: as §1

[9] = tested on: Staphylococcus aureus ATCC 6538P; assay: In vitro antibacterial activity, agar dilution MIC; conditions: ATCC6538P
Procedure, shortened: as §1

[10] = tested on: Haemophilus influenzae ATCC 10211; assay: In vitro antibacterial activity, agar dilution MIC; conditions: ATCC10211, H. influenzae ATCC 10211
Procedure, shortened: as §1

Escherichia coli DC-2 = assay: In vitro antibacterial activity, agar dilution MIC; conditions: DC2
Procedure, shortened: as §1

[11] = tested on: Staphylococcus epidermidis 3519; assay: In vitro antibacterial activity, agar dilution MIC; conditions: S. epidermidis 3519, Brain Heart Infusion agar, 20-24 hours, read-out: MIC
Procedure, shortened: as §1

[12] = tested on: Haemophilus influenzae 632A; assay: In vitro antibacterial activity, agar dilution MIC; conditions: H. influenzae 632A
Procedure, shortened: as §1

Escherichia coli Juhl = assay: In vitro antibacterial activity, agar dilution MIC
Procedure, shortened: as §1

[13] = tested on: Streptococcus bovis A5169; assay: In vitro antibacterial activity, agar dilution MIC; conditions: read-out: MIC
Procedure, shortened: as §1

[14] = tested on: Haemophilus influenzae 667A; assay: In vitro antibacterial activity, agar dilution MIC; conditions: H. influenzae 667A
Procedure, shortened: as §1

[15] = tested on: Streptococcus pyogenes 930 CONST; assay: In vitro antibacterial activity, agar dilution MIC; conditions: 930CONST
Procedure, shortened: as §1

[16] = tested on: Streptococcus pyogenes EES61; assay: In vitro antibacterial activity, agar dilution MIC; conditions: S. pyogenes EES61, Brain Heart Infusion agar, 20-24 hours, read-out: MIC
Procedure, shortened: as §1

[17] = tested on: Staphylococcus aureus 642A; assay: In vitro antibacterial activity, agar dilution MIC; conditions: S. aureus 642A, Brain Heart Infusion agar, 20-24 hours, read-out: MIC
Procedure, shortened: as §1

[18] = tested on: Haemophilus influenzae ATCC 19418; assay: In vitro antibacterial activity, agar dilution MIC; conditions: ATCC19418, H. influenzae ATCC 19418
Procedure, shortened: as §1

[19] = tested on: Haemophilus influenzae 519A; assay: In vitro antibacterial activity, agar dilution MIC; conditions: H. influenzae 519A
Procedure, shortened: as §1

[20] = tested on: Haemophilus influenzae 747C; assay: In vitro antibacterial activity, agar dilution MIC; conditions: H. influenzae 747C
Procedure, shortened: as §1

[21] = tested on: Streptococcus agalactiae CMX 508; assay: In vitro antibacterial activity, agar dilution MIC; conditions: CMX508, S. agalactiae CMX 508, Brain Heart Infusion agar, 20-24 hours, read-out: MIC
Procedure, shortened: as §1

[22] = tested on: Haemophilus influenzae 1435; assay: In vitro antibacterial activity, agar dilution MIC; conditions: H. influenzae 1435
Procedure, shortened: as §1

[23] = tested on: Haemophilus influenzae 751; assay: In vitro antibacterial activity, agar dilution MIC; conditions: H. influenzae 751
Procedure, shortened: as §1

[24] = tested on: Haemophilus influenzae ATCC 9795; assay: In vitro antibacterial activity, agar dilution MIC; conditions: ATCC9795, H. influenzae ATCC 9795
Procedure, shortened: as §1

Escherichia coli H560 = assay: In vitro antibacterial activity, agar dilution MIC; conditions: E. coli H560, Brain Heart Infusion agar, 20-24 hours, read-out: MIC
Procedure, shortened: as §1

[25] = tested on: Haemophilus influenzae DILL AMP R; assay: In vitro antibacterial activity, agar dilution MIC; conditions: H. influenzae DILL AMP R
Procedure, shortened: as §1

[26] = tested on: Staphylococcus aureus A5177; assay: In vitro antibacterial activity, agar dilution MIC; conditions: S. aureus A5177, Brain Heart Infusion agar, 20-24 hours, read-out: MIC
Procedure, shortened: as §1

[27] = tested on: Haemophilus influenzae 503B; assay: In vitro antibacterial activity, agar dilution MIC; conditions: H. influenzae 503B
Procedure, shortened: as §1

[28] = tested on: Haemophilus influenzae 1177; assay: In vitro antibacterial activity, agar dilution MIC; conditions: H. influenzae 1177
Procedure, shortened: as §1

[29] = tested on: Micrococcus luteus ATCC 9341; assay: In vitro antibacterial activity, agar dilution MIC; conditions: ATCC9341, M. luteus ATCC 9341, Brain Heart Infusion agar, 20-24 hours, read-out: MIC
Procedure, shortened: as §1

[30] = tested on: Haemophilus influenzae SOL AMP R; assay: In vitro antibacterial activity, agar dilution MIC; conditions: H. influenzae SOL AMP R
Procedure, shortened: as §1

[31] = tested on: Haemophilus influenzae 504; assay: In vitro antibacterial activity, agar dilution MIC; conditions: H. influenzae 504
Procedure, shortened: as §1

[32] = tested on: Staphylococcus aureus 45 RAR 2; assay: microbe, parasite or virus in culture; conditions: 45RAR2
Procedure, shortened: as §1

`CC[C@H]1OC(=O)[C@H](C)[C@@H](O[C@H]2C[C@@](C)(OC)[C@@H](O)[C@H](C)O2)[C@H](C)[C@@H](O[C@@H]2O[C@H](C)C[C@H](N(C)C)[C@H]2O)[C@](C)(O)C[C@@H](C)[C@@H](N2CCC(C)CC2)[C@H](C)[C@@H](O)[C@]1(C)O` [Example 6] was tested, and the MIC (Staphylococcus aureus 45) was 0.2 mg/L (≈ 0.245 µM), the MIC [1] was 0.1 mg/L (≈ 0.122 µM) and the MIC [2] was 0.78 mg/L (≈ 0.955 µM). The MIC ([3]; 2548INDUC) was 3.1 mg/L (≈ 3.79 µM), the MIC [4] was 1 mg/L (≈ 1.22 µM) and the MIC (Escherichia coli SS) was 0.2 mg/L (≈ 0.245 µM). It also gave an MIC [5] of 0.39 mg/L (≈ 0.477 µM), an MIC [6] of 0.2 mg/L (≈ 0.245 µM) and an MIC [7] of 2 mg/L (≈ 2.45 µM). It also gave an MIC [8] of 1 mg/L (≈ 1.22 µM), an MIC [9] of 0.39 mg/L (≈ 0.477 µM) and an MIC [10] of 1 mg/L (≈ 1.22 µM). The MIC (Escherichia coli DC-2) was 25 mg/L (≈ 30.6 µM), the MIC [11] was 0.39 mg/L (≈ 0.477 µM) and the MIC [12] was 1 mg/L (≈ 1.22 µM). The MIC (Escherichia coli Juhl) was 12.5 mg/L (≈ 15.3 µM), the MIC [13] was 0.02 mg/L (≈ 0.0245 µM) and the MIC [14] was 2 mg/L (≈ 2.45 µM). For the same molecule, the MIC [15] was greater than 100 mg/L, the MIC [16] was 0.1 mg/L (≈ 0.122 µM) and the MIC [17] was 0.39 mg/L (≈ 0.477 µM). It also gave an MIC [18] of 2 mg/L (≈ 2.45 µM), an MIC [19] of 0.5 mg/L (≈ 0.612 µM) and an MIC [20] of 1 mg/L (≈ 1.22 µM). For the same molecule, the MIC [21] was 0.1 mg/L (≈ 0.122 µM), the MIC [22] was 1 mg/L (≈ 1.22 µM) and the MIC [23] was 1 mg/L (≈ 1.22 µM). The MIC [24] was 1 mg/L (≈ 1.22 µM), the MIC (Escherichia coli H560) was 3.1 mg/L (≈ 3.79 µM) and the MIC [25] was 1 mg/L (≈ 1.22 µM). It also gave an MIC [26] of 3.1 mg/L (≈ 3.79 µM), an MIC [27] of 1 mg/L (≈ 1.22 µM) and an MIC [28] of 0.25 mg/L (≈ 0.306 µM). It also gave an MIC [29] of 0.05 mg/L (≈ 0.0612 µM), an MIC [30] of 1 mg/L (≈ 1.22 µM) and an MIC [31] of 1 mg/L (≈ 1.22 µM). It also gave an MIC [32] of 0.78 mg/L (≈ 0.955 µM).
`CC[C@H]1OC(=O)[C@H](C)[C@@H](O[C@H]2C[C@@](C)(OC)[C@@H](O)[C@H](C)O2)[C@H](C)[C@@H](O[C@@H]2O[C@H](C)C[C@H](N(C)C)[C@H]2O)[C@](C)(O)C[C@@H](C)[C@@H](N2CCC(C)(C)CC2)[C@H](C)[C@@H](O)[C@]1(C)O` [Example 7] was tested, and the MIC (Staphylococcus aureus 45) was 0.2 mg/L (≈ 0.241 µM), the MIC [1] was 0.1 mg/L (≈ 0.12 µM) and the MIC [2] was 0.39 mg/L (≈ 0.469 µM). It also gave an MIC ([3]; S. pyogenes 2548 INDUC, Brain Heart Infusion agar, 20-24 hours, read-out: MIC) of 6.2 mg/L (≈ 7.46 µM), an MIC [4] of 1 mg/L (≈ 1.2 µM) and an MIC (Escherichia coli SS) of 0.2 mg/L (≈ 0.241 µM). It also gave an MIC [5] of 0.39 mg/L (≈ 0.469 µM), an MIC [6] of 0.2 mg/L (≈ 0.241 µM) and an MIC [7] of 2 mg/L (≈ 2.41 µM). The MIC [8] was 1 mg/L (≈ 1.2 µM), the MIC [9] was 0.39 mg/L (≈ 0.469 µM) and the MIC [10] was 1 mg/L (≈ 1.2 µM). The MIC (Escherichia coli DC-2) was 12.5 mg/L (≈ 15 µM), the MIC [11] was 0.39 mg/L (≈ 0.469 µM) and the MIC [12] was 1 mg/L (≈ 1.2 µM). The MIC (Escherichia coli Juhl) was 12.5 mg/L (≈ 15 µM), the MIC ([13]; S. bovis A5169, Brain Heart Infusion agar, 20-24 hours) was no more than 0.05 mg/L and the MIC [14] was 1 mg/L (≈ 1.2 µM). The MIC [15] was greater than 100 mg/L, the MIC [16] was 0.1 mg/L (≈ 0.12 µM) and the MIC [17] was 0.39 mg/L (≈ 0.469 µM). It also gave an MIC [18] of 2 mg/L (≈ 2.41 µM), an MIC [19] of 0.5 mg/L (≈ 0.602 µM) and an MIC [20] of 1 mg/L (≈ 1.2 µM). For the same molecule, the MIC [21] was no more than 0.05 mg/L, the MIC [22] was 0.5 mg/L (≈ 0.602 µM) and the MIC [23] was 1 mg/L (≈ 1.2 µM). It also gave an MIC [24] of 1 mg/L (≈ 1.2 µM), an MIC (Escherichia coli H560) of 3.1 mg/L (≈ 3.73 µM) and an MIC [25] of 1 mg/L (≈ 1.2 µM). It also gave an MIC [26] of 3.1 mg/L (≈ 3.73 µM), an MIC [27] of 1 mg/L (≈ 1.2 µM) and an MIC [28] of 0.25 mg/L (≈ 0.301 µM). It also gave an MIC [29] of no more than 0.05 mg/L, an MIC [30] of 0.5 mg/L (≈ 0.602 µM) and an MIC [31] of 1 mg/L (≈ 1.2 µM). For the same molecule, the MIC [32] was 0.39 mg/L (≈ 0.469 µM).
